Reference: patent US6380463B1, “Inducible herbicide resistance” (priority 1995, dated 2002)

Legend:
alcA/alcR system [1] = experiment: hydroponic seedling system (root drenching), induced reporter gene expression; format: in vivo; details: FIG. 2
Text: (§1) 3. We have tested the specificity of alcA/alcR system with a range of solvents used in agronomic practice.

alcA/alcR system [2] = details: applied as a foliar spray, FIG. 3
Text: as §1
FIG. 3 illustrates the levels of induced reporter gene activity when the chemicals listed in Table 1 were applied as a foliar spray;

alcA/alcR system [3] = experiment: non-solvent chemical treatments, induction of the alcA/alcR switch; format: in vivo; details: non-solvent chemical treatment
[4] = system: 5-enol-pyruvylshikimate-3-phosphate (EPSP) synthase; experiment: EPSPS assay in plant extracts (14C-labelled phosphoenol pyruvate, HPLC); format: biochemical
Description: Assays for 5-enol-pyruvylshikimate-3-phosphate (EPSP) synthase activity in plant extracts were carried out (1) by following the disappearance of the phosphoenol pyruvate substrate (as described by Rubin, J. L., Gaines, C. G and Jensen, R. A., in Plant Physiol (1984 75, 839-845) or (2) by conducting the assay in the reverse direction and coupling to pyruvate kinase and lactate dehydrogenase (as described by Mousdale D. M. and Coggins J. R. in Planta (1984) 160, 78-83) or (3) by using 14(-labelled phosphoenol pyruvate as substrate and detecting the formation of radioactive EPSP by HPLC on an anion exchange column and detecting using a flow-through radioactivity detector as described by Della-Cioppa et al in Proc. Nat. Acad. Sci. (USA) (1986), 83, 6873-6877.

Tobacco var Samsun = experiment: kill curve on glyphosate, tobacco stem segment in MS medium; format: in vivo
Description: (§2) Kill Curves for Tobacco var Samsun and Brassica napus var Westar on glyphosate
(§3) Both species were tested on a range of glyphosate concentrations by inserting, in the case of tobacco a 5-6 mm stem segment carrying a leaf node and in the case of oil seed rape the growing tip plus two leaves into MS medium containing glyphosate at […] glyphosate isopropylamine salt.

[5] = system: Brassica napus var Westar; experiment: kill curve on glyphosate, oil seed rape growing tip plus two leaves in MS medium; format: in vivo
Description: as §2, §3

## CCC(C)O (stereo not shown) [butan-2-ol]
alcA/alcR system [1]
  levels of induced reporter gene expression: high levels of induced reporter gene expression

## CCO [ethanol]
alcA/alcR system [1]
  levels of induced reporter gene expression: high levels of induced reporter gene expression
alcA/alcR system [2]
  levels of induced reporter gene activity: high levels of induced reporter gene activity

## O=C(O)c1ccccc1O [salicylic acid]
alcA/alcR system [3]
  induction of the alcA/alcR system: failed to induce

## O=C(O)CNCP(=O)(O)O [glyphosate, N-phosphonomethyl-glycine]
[4]
  inhibition of EPSP synthase activity: relatively resistant to inhibition
Tobacco var Samsun; 0.005 mM in MS medium
  growth scored after two weeks: No growth
Tobacco var Samsun; 0.01 mM in MS medium
  growth scored after two weeks: No growth
Tobacco var Samsun; 0.011 mM in MS medium
  growth scored after two weeks: No growth
Tobacco var Samsun; 0.0275 mM in MS medium
  growth scored after two weeks: No growth
Tobacco var Samsun; 0.055 mM in MS medium
  growth scored after two weeks: No growth
[5]; 0.005 mM in MS medium
  growth scored after two weeks: No stem growth, 1 new leaf, roots to 1 cm
[5]; 0.011 mM in MS medium
  growth scored after two weeks: No stem growth, no new leaves, roots ˜ 0.5 cm
[5]; 0.0275 mM in MS medium
  growth scored after two weeks: No stem growth, no new leaves, roots ˜ 2 mm
[5]; 0.055 mM in MS medium
  growth scored after two weeks: No growth in any organ, ends of stem blackened

## C=C1C[C@]23C[C@@]1(O)CC[C@H]2[C@@]12C=C[C@H](O)[C@@](C)(C(=O)O1)[C@H]2[C@@H]3C(=O)O [gibberelic acid]
alcA/alcR system [3]
  induction of the alcA/alcR system: failed to induce

## auxin
alcA/alcR system [3]
  induction of the alcA/alcR system: failed to induce

## C=C [ethylene]
alcA/alcR system [3]
  induction of the alcA/alcR system: failed to induce

## CC1=CC(=O)CC(C)(C)C1(O)/C=C/C(C)=C\C(=O)O (stereo not shown) [absisic acid]
alcA/alcR system [3]
  induction of the alcA/alcR system: failed to induce

## O=C1CCCCC1 [cyclohexanone]
alcA/alcR system [1]
  levels of induced reporter gene expression: high levels of induced reporter gene expression
